In assay [1] the target is T1, 5-hydroxytryptamine receptor 1A (Homo sapiens) (UniProt P08908).
T1 sequence (whole entry): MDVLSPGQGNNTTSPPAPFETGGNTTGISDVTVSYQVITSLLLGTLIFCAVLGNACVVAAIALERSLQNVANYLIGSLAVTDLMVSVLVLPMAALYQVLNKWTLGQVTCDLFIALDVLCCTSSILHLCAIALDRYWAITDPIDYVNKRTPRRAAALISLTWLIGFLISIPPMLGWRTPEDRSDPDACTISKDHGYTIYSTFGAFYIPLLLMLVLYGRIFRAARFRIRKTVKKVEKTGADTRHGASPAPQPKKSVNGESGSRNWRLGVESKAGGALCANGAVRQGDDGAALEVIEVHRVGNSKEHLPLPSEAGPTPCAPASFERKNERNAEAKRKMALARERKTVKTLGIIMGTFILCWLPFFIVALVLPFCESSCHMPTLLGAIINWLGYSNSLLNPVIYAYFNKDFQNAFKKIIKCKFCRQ
Description: (§1) Inhibition of 5-HT induced [35S]GTP-gamma-S, binding at human cloned 5-HT 1A receptors. Type of assay: functional. On the technique in general: GTPγS is a poorly hydrolysed GTP analogue; its binding reports G protein activation.

The target in assay [2] is T2, 5-hydroxytryptamine receptor 1A (Homo sapiens, UniProt P08908).
T2 sequence (P08908 whole entry): T1 sequence (whole entry)
Description: In vitro binding affinity at 5-hydroxytryptamine 1A receptor by [3H]8-OH-DPAT displacement.

For assay [3], the target named is Sodium-dependent serotonin transporter (Rattus norvegicus, UniProt P31652). Kind of assay: In vitro affinity at the 5-HT reuptake site using [3H]paroxetine as radioligand in rat frontal cortex membranes. Type of assay: cell membranes, Membrane.
Assay [4] concerns the target T2, 5-hydroxytryptamine receptor 1A. Described as §1. The format is functional.
The target in assay [5] is T1, 5-hydroxytryptamine receptor 1A (Homo sapiens). Kind of assay: Stimulation of binding of [35S]GTP-gamma-S, to G protein mediated by human cloned 5-hydroxytryptamine 1A receptor tested in vitro at 1 uM. Type of assay: functional.
Assay [6] has the same target. Kind of assay: In vitro binding affinity towards 5-hydroxytryptamine 1A receptor using [3H]8-OH-DPAT as radioligand. The settings on record: concentration not given here.

Molecules are shown by their SMILES. Bounds are passed on as bounds.

Chain of Sodium-dependent serotonin transporter (P31652 whole entry): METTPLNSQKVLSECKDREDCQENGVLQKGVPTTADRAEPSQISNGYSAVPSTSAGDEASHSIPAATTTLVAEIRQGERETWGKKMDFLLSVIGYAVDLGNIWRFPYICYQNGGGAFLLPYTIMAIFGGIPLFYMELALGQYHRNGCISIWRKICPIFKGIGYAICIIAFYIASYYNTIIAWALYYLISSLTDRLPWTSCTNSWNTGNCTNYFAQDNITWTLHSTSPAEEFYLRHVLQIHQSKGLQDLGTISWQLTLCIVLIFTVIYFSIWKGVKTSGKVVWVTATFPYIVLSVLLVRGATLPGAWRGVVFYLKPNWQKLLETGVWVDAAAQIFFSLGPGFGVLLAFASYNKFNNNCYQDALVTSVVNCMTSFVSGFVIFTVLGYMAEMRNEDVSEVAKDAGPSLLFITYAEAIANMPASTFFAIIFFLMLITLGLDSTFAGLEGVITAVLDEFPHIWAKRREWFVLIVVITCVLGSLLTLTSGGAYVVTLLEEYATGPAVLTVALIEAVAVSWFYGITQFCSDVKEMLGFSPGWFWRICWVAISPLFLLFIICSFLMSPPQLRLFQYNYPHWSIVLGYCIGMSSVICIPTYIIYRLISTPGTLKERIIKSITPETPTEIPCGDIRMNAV

The Ki is a measure of affinity in units of concentration, obtained from inhibition or displacement. Lower therefore signals tighter binding. `C[C@H]1C[C@H](c2cc3cc(F)ccc3s2)CCN1C[C@H](O)COc1cccc2[nH]ccc12` displayed an Emin in assay [1] of 7.69%. Besides, the Ki worked out at 6.4 nM in assay [2], 0.39 nM in assay [3] and 5.67 nM in assay [4]. The Stimulation in assay [5] was found to be 7.68%.
For `C[C@H]1C[C@@H](c2cc3cc(F)ccc3s2)CCN1C[C@H](O)COc1cccc2[nH]ccc12`, in that order: 7.87%, 36.8 nM, 4.22 nM, 16.5 nM and 3.24%.
Compound `C[C@H]1C[C@H](c2cc3cccc(F)c3s2)CCN1C[C@H](O)COc1cccc2[nH]ccc12` displayed an Emin in assay [1] of 6.8%. The Ki in assay [2] was 21.9 nM; in assay [3] it was 3.47 nM; in assay [4], 4.23 nM. The Stimulation in assay [5] turned out to be 2.66%.
For orientation: inhibition means the drop in the measured response relative to a control, in per cent. A low value points to a response near the control. Compound `Cc1ccc2cc([C@@H]3CCN(C[C@H](O)COc4cccc5[nH]ccc45)[C@@H](C)C3)sc2c1` showed a Ki in assay [3] of 2.24 nM. In assay [6], the inhibition is < 50%.
Consider `C[C@H]1C[C@H](c2cc3c(C(F)(F)F)cccc3s2)CCN1C[C@H](O)COc1cccc2[nH]ccc12`, for which the Ki in assay [2] stood at 24.2 nM; in assay [3], 3.46 nM.
For the compound `C[C@H]1C[C@H](c2cc3ccc(F)cc3s2)CCN1C[C@H](O)COc1cccc2[nH]ccc12`, the Emin in assay [1] is 9%. Also, the Ki was determined as 5.52 nM in assay [2], 0.31 nM in assay [3] and 7.45 nM in assay [4]. The compound further had a Stimulation in assay [5] of 5.32%.
In assay [5], `COc1cccc2sc([C@@H]3CCN(C[C@H](O)COc4cccc5[nH]ccc45)[C@@H](C)C3)cc12` registered a Stimulation of 7.77%.
The compound `Cc1cccc2sc([C@@H]3CCN(C[C@H](O)COc4cccc5[nH]ccc45)[C@@H](C)C3)cc12` returned an Emin in assay [1] of 4.96%. In addition, the results for the inhibition constant Ki in assay [2], in assay [3] and in assay [4] were 6.85 nM, 0.44 nM and 8.75 nM, respectively. This compound displayed a Stimulation in assay [5] of 8.48%.
The like results for `O[C@H](COc1cccc2[nH]ccc12)CN1[C@@H]2CC[C@H]1C[C@H](c1cc3ccccc3s1)C2` were, in that order, 9.4%, 30.5 nM, 0.07 nM, 70.1 nM and 9.26%.
Regarding `COc1cccc2sc([C@H]3CCN(C[C@H](O)COc4cccc5[nH]ccc45)[C@H](C)C3)cc12`, the Emin in assay [1] was found to be 5.97%. In assay [5], this compound yielded a Stimulation of 4.41%.
The compound `C[C@H]1C[C@H](c2cc3cc(Cl)ccc3s2)CCN1C[C@H](O)COc1cccc2[nH]ccc12` came in with an Emin in assay [1] of 6.81%. The figures for the Ki in assay [2], in assay [3] and in assay [4] were 8.34 nM, 0.58 nM and 5.26 nM, respectively. For the same compound, in assay [5], the Stimulation is 3.97%.
Turning to `COc1cccc2sc([C@H]3CCN(C[C@H](O)COc4cccc5[nH]ccc45)[C@@H](C)C3)cc12`, the Emin in assay [1] worked out at 1.43%. Besides, in assay [5], the Stimulation was determined as 1.38%.
As to `C[C@H]1C[C@H](c2cc3c(F)cccc3s2)CCN1C[C@H](O)COc1cccc2[nH]ccc12`, the Emin in assay [1] was 7.44%. Also, the results for the Ki in assay [3] and in assay [4] were 1.16 nM and 4.88 nM, respectively. In assay [5], this compound displayed a Stimulation of 5.37%.
`COc1cccc2sc([C@@H]3C[C@H]4CC[C@@H](C3)N4C[C@H](O)COc3cccc4[nH]ccc34)cc12` (stereo in doubt; exo) [listing 1 of 2 here]: the Emin in assay [1] was 4.02%. In assay [5], this compound gave a Stimulation of 7.22%.
Compound `C[C@H]1C[C@H](c2cc3ccc(Cl)cc3s2)CCN1C[C@H](O)COc1cccc2[nH]ccc12` gave an Emin in assay [1] of 7.99%. In addition, the Ki amounted to 24.8 nM in assay [2], 1.1 nM in assay [3] and 11.7 nM in assay [4]. This compound also gave a Stimulation in assay [5] of 8.49%.
As to `Cc1cc(C)c2cc([C@@H]3CCN(C[C@H](O)COc4cccc5[nH]ccc45)[C@@H](C)C3)sc2c1`, the Ki came out at 94.9 nM in assay [2] and 1.93 nM in assay [3].
As for `COc1cccc2sc([C@@H]3C[C@H]4CC[C@@H](C3)N4C[C@H](O)COc3cccc4[nH]ccc34)cc12` (stereo in doubt; endo) [listing 1 of 2 here], the affinity in assay [3] corresponds to a Ki of 0.17 nM.
`COc1ccc2cc([C@@H]3CCN(C[C@H](O)COc4cccc5[nH]ccc45)[C@@H](C)C3)sc2c1` gave an Emin in assay [1] of 6.67%. Also, the Ki in assay [2] stood at 14.5 nM; in assay [3], 1.1 nM; in assay [4] it was 2.98 nM. Further, the Stimulation in assay [5] was found to be 5.26%.
For `C[C@@H]1C[C@@H](c2cc3cc(F)ccc3s2)CCN1C[C@H](O)COc1cccc2[nH]ccc12`, in that order: 10.5%, 11.7 nM, 0.99 nM, 16.7 nM and 6.35%.
`COc1cccc2sc([C@@H]3CCN(C[C@H](O)COc4cccc5[nH]ccc45)[C@H](C)C3)cc12` gave an Emin in assay [1] of 2.01%. This compound also came in with a Stimulation in assay [5] of 1.2%.
Compound `COc1ccc2sc([C@@H]3CCN(C[C@H](O)COc4cccc5[nH]ccc45)[C@@H](C)C3)cc2c1OC` displayed an Emin in assay [1] of 4.8%. Further, the Ki was 1.3 nM in assay [2], 10.8 nM in assay [3] and 0.98 nM in assay [4]. This compound also yielded a Stimulation in assay [5] of 8.38%.
The like results for `C[C@H]1C[C@H](c2cc3ccccc3s2)CCN1C[C@H](O)COc1cccc2[nH]ccc12` were, in that order, 7.5%, 3.09 nM, 0.51 nM, 3.28 nM and 6.32%.
Regarding `COc1cccc2sc([C@@H]3C[C@H]4CC[C@@H](C3)N4C[C@H](O)COc3cccc4[nH]ccc34)cc12` (stereo in doubt; endo) [listing 2 of 2 here], the inhibition in assay [6] was > 50%.
As to `COc1cccc2sc([C@@H]3C[C@H]4CC[C@@H](C3)N4C[C@H](O)COc3cccc4[nH]ccc34)cc12` (stereo in doubt; exo) [listing 2 of 2 here], the inhibition constant Ki in assay [2] is 15.7 nM; in assay [3], 1.31 nM; in assay [4], 18.7 nM.
In the case of `C[C@@H]1C[C@H](c2cc3cc(F)ccc3s2)CCN1C[C@H](O)COc1cccc2[nH]ccc12`, the Emin in assay [1] is 10.8%. Moreover, the Ki in assay [2] was 8.77 nM; in assay [3], 3.53 nM; in assay [4], 1.76 nM. For the same compound, the Stimulation in assay [5] was found to be 7.21%.
Turning to `C[C@H]1C[C@H](c2cc3c(Cl)cccc3s2)CCN1C[C@H](O)COc1cccc2[nH]ccc12`, the Ki in assay [3] was 0.69 nM. In assay [6], the inhibition is < 50%.

Source of the values: ChEMBL document CHEMBL1136114, “Advances Toward new antidepressants beyond SSRIs: 1-aryloxy-3-piperidinylpropan-2-ols with dual 5-HT(1A) receptor antagonism/SSRI activities. Part 2” (Bioorg Med Chem Lett, 2003).
